Test results taken from patent US9708314B2, “Heterocyclic amide compound” (NISSAN CHEMICAL INDUSTRIES, LTD., priority 2013, dated 2017).

Key:
Assay type in all cases: in vivo
[1] = system: transplanted Oryza sativa; experiment: Test Example 1: effect on crop, application before weed generation in submerged conditions; settings: Application herbicide amount 320 g/ha; Seventeenth Table
Method in brief: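 Pre-emergence application to water surface of submerged pots (4 cm depth, alluvial soil) on sowing day, with 2.5-leaf rice transplanted; emulsion diluted to g/ha rates. Grown in greenhouse at 25–30 °C; 0–5 herbicidal/crop-effect score after three weeks.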

[2] = system: Beta vulgaris ssp. vulgaris; experiment: Test Example 4: effect on crop by application to foliage (diluvial soil, plastic box); settings: Application herbicide amount 320 g/ha; foliage application
Method in brief: (§1)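 Plants were grown in sterilized diluvial soil in a greenhouse at 25-30° C for 14 days, then sprayed on stems and leaves with water-diluted emulsion formulation at set rates in g/ha. Weed control and crop injury were scored 3 weeks after treatment on a 0-5 herbicidal-ratio scale, from 0 (≤5%) to 5 (≥90%).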

Glycine max = experiment: as above; settings: Application herbicide amount 320 g/ha; foliage application
Method in brief: as §1

Brassica campestris L. = experiment: as above; settings: Application herbicide amount 320 g/ha; foliage application
Method in brief: as §1

Zea mays = experiment: as above; settings: Application herbicide amount 320 g/ha; foliage application
Method in brief: as §1

[3] = system: directly sowed Oryza sativa; experiment: as above; settings: Application herbicide amount 320 g/ha; foliage application
Method in brief: as §1

Triticum aestivum = experiment: as above; settings: Application herbicide amount 320 g/ha; foliage application
Method in brief: as §1

Veronica persica = experiment: Test Example 4: herbicidal effect by application to foliage (diluvial soil, plastic box); settings: Application herbicide amount 320 g/ha; foliage application
Method in brief: as §1

Lolium multiflorum Lam. = experiment: as above; settings: Application herbicide amount 320 g/ha; foliage application
Method in brief: as §1

Galium spurium = experiment: as above; settings: Application herbicide amount 320 g/ha; foliage application
Method in brief: as §1

Chenopodium album = experiment: as above; settings: Application herbicide amount 320 g/ha; foliage application
Method in brief: as §1

Digitaria ciliaris = experiment: as above; settings: Application herbicide amount 320 g/ha; foliage application
Method in brief: as §1

Stellaria media = experiment: as above; settings: Application herbicide amount 320 g/ha; foliage application
Method in brief: as §1

Apera spica-venti. = experiment: as above; settings: Application herbicide amount 320 g/ha; foliage application
Method in brief: as §1

[4] = system: Echinochloa crus-galli var. crus-galli; experiment: as above; settings: Application herbicide amount 320 g/ha; foliage application
Method in brief: as §1

Avena fatua = experiment: as above; settings: Application herbicide amount 320 g/ha; foliage application
Method in brief: as §1

Alopecurus myosuroides = experiment: as above; settings: Application herbicide amount 320 g/ha; foliage application
Method in brief: as §1

Amaranthus retroflexus = experiment: as above; settings: Application herbicide amount 320 g/ha; foliage application
Method in brief: as §1

Setaria viridis = experiment: as above; settings: Application herbicide amount 320 g/ha; foliage application
Method in brief: as §1

Abutilon theophrasti = experiment: as above; settings: Application herbicide amount 320 g/ha; foliage application
Method in brief: as §1

SMILES	a: transplanted Oryza sativa (effect on crop grade) [1]	f (Beta vulgaris ssp. vulgaris) effect on crop grade [2]	d (Glycine max) effect on crop grade (Glycine max)	g (Brassica campestris L.) effect on crop grade (Brassica campestris L.)	c (Zea mays) effect on crop grade (Zea mays)	b (directly sowed Oryza sativa) effect on crop grade [3]	e (Triticum aestivum) effect on crop grade (Triticum aestivum)	R (Veronica persica) herbicidal effect grade (Veronica persica)	K (Lolium multiflorum Lam.) herbicidal effect grade (Lolium multiflorum Lam.)	Q (Galium spurium) herbicidal effect grade (Galium spurium)	O (Chenopodium album) herbicidal effect grade (Chenopodium album)	F (Digitaria ciliaris) herbicidal effect grade (Digitaria ciliaris)	P (Stellaria media) herbicidal effect grade (Stellaria media)	L (Apera spica-venti.) herbicidal effect grade (Apera spica-venti.)	H (Echinochloa crus-galli var. crus-galli) herbicidal effect grade [4]	I (Avena fatua) herbicidal effect grade (Avena fatua)	J (Alopecurus myosuroides) herbicidal effect grade (Alopecurus myosuroides)	N (Amaranthus retroflexus) herbicidal effect grade (Amaranthus retroflexus)	G (Setaria viridis) herbicidal effect grade (Setaria viridis)	M (Abutilon theophrasti) herbicidal effect grade (Abutilon theophrasti)
CCCSc1nnc2c(C(=O)Nc3nnco3)ccc(C(F)(F)F)n12 [1-108]	0 (Herbicidal ratio of 5% or less (almost no effect))	5 (Herbicidal ratio of 90% or more (almost completely withered))	4 (Herbicidal ratio of 70% or more and less than 90%)	3 (Herbicidal ratio of 40% or more and less than 70%)	1 (Herbicidal ratio of 5% or more and less than 20%)	1 (Herbicidal ratio of 5% or more and less than 20%)	1 (Herbicidal ratio of 5% or more and less than 20%)	5 (Herbicidal ratio of 90% or more (almost completely withered))	2 (Herbicidal ratio of 20% or more and less than 40%)	3 (Herbicidal ratio of 40% or more and less than 70%)	5 (Herbicidal ratio of 90% or more (almost completely withered))	5 (Herbicidal ratio of 90% or more (almost completely withered))	5 (Herbicidal ratio of 90% or more (almost completely withered))	2 (Herbicidal ratio of 20% or more and less than 40%)	5 (Herbicidal ratio of 90% or more (almost completely withered))	2 (Herbicidal ratio of 20% or more and less than 40%)	1 (Herbicidal ratio of 5% or more and less than 20%)	5 (Herbicidal ratio of 90% or more (almost completely withered))	5 (Herbicidal ratio of 90% or more (almost completely withered))	4 (Herbicidal ratio of 70% or more and less than 90%)
COCCNc1nnc2c(C(=O)Nc3nnc(C)o3)ccc(C(F)(F)F)n12 [1-109]	0 (Herbicidal ratio of 5% or less (almost no effect))	4 (Herbicidal ratio of 70% or more and less than 90%)	3 (Herbicidal ratio of 40% or more and less than 70%)	4 (Herbicidal ratio of 70% or more and less than 90%)	1 (Herbicidal ratio of 5% or more and less than 20%)	0 (Herbicidal ratio of 5% or less (almost no effect))	0 (Herbicidal ratio of 5% or less (almost no effect))	4 (Herbicidal ratio of 70% or more and less than 90%)	0 (Herbicidal ratio of 5% or less (almost no effect))	2 (Herbicidal ratio of 20% or more and less than 40%)	5 (Herbicidal ratio of 90% or more (almost completely withered))	4 (Herbicidal ratio of 70% or more and less than 90%)	4 (Herbicidal ratio of 70% or more and less than 90%)	0 (Herbicidal ratio of 5% or less (almost no effect))	5 (Herbicidal ratio of 90% or more (almost completely withered))	1 (Herbicidal ratio of 5% or more and less than 20%)	0 (Herbicidal ratio of 5% or less (almost no effect))	4 (Herbicidal ratio of 70% or more and less than 90%)	3 (Herbicidal ratio of 40% or more and less than 70%)	4 (Herbicidal ratio of 70% or more and less than 90%)
O=C(Nc1nnco1)c1ccc(C(F)(F)F)n2c(N3CCOCC3)nnc12 [1-110]	4 (Herbicidal ratio of 70% or more and less than 90%)	5 (Herbicidal ratio of 90% or more (almost completely withered))	4 (Herbicidal ratio of 70% or more and less than 90%)	5 (Herbicidal ratio of 90% or more (almost completely withered))	4 (Herbicidal ratio of 70% or more and less than 90%)	4 (Herbicidal ratio of 70% or more and less than 90%)	3 (Herbicidal ratio of 40% or more and less than 70%)	5 (Herbicidal ratio of 90% or more (almost completely withered))	3 (Herbicidal ratio of 40% or more and less than 70%)	4 (Herbicidal ratio of 70% or more and less than 90%)	5 (Herbicidal ratio of 90% or more (almost completely withered))	5 (Herbicidal ratio of 90% or more (almost completely withered))	5 (Herbicidal ratio of 90% or more (almost completely withered))	3 (Herbicidal ratio of 40% or more and less than 70%)	5 (Herbicidal ratio of 90% or more (almost completely withered))	4 (Herbicidal ratio of 70% or more and less than 90%)	3 (Herbicidal ratio of 40% or more and less than 70%)	5 (Herbicidal ratio of 90% or more (almost completely withered))	5 (Herbicidal ratio of 90% or more (almost completely withered))	4 (Herbicidal ratio of 70% or more and less than 90%)
CCOc1nnc2c(C(=O)Nc3nnco3)ccc(C(F)(F)F)n12 [1-112]	0 (Herbicidal ratio of 5% or less (almost no effect))	5 (Herbicidal ratio of 90% or more (almost completely withered))	3 (Herbicidal ratio of 40% or more and less than 70%)	3 (Herbicidal ratio of 40% or more and less than 70%)	0 (Herbicidal ratio of 5% or less (almost no effect))	0 (Herbicidal ratio of 5% or less (almost no effect))	0 (Herbicidal ratio of 5% or less (almost no effect))	5 (Herbicidal ratio of 90% or more (almost completely withered))	0 (Herbicidal ratio of 5% or less (almost no effect))	0 (Herbicidal ratio of 5% or less (almost no effect))	5 (Herbicidal ratio of 90% or more (almost completely withered))	1 (Herbicidal ratio of 5% or more and less than 20%)	4 (Herbicidal ratio of 70% or more and less than 90%)	0 (Herbicidal ratio of 5% or less (almost no effect))	2 (Herbicidal ratio of 20% or more and less than 40%)	0 (Herbicidal ratio of 5% or less (almost no effect))	0 (Herbicidal ratio of 5% or less (almost no effect))	4 (Herbicidal ratio of 70% or more and less than 90%)	0 (Herbicidal ratio of 5% or less (almost no effect))	3 (Herbicidal ratio of 40% or more and less than 70%)
